Source: PubChem BioAssay AID248 (DTP/NCI, 2004)
Values joined by “and” are separate entries in the source; they are usually repeats but may differ in a detail not shown here. Equal values may be shown once. Toxic doses and inconclusive results are not listed. No stated cut-off is given here; in the data, active means T/C of 150% or more; inactive means T/C below 125%.

Tested on: L1210 leukemia ip in BDF1 mice, survival T/C
Experiment: NCI In Vivo Anticancer Drug Screen. Data for tumor model L1210 Leukemia (intraperitoneal) in B6D2F1 (BDF1) mice
Conditions: endpoint: mean survival time, higher = longer survival
Method in brief: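 Transplanted-tumor mice were given test agent; controls received vehicle only. Survival readings from the two groups were divided (treated over control).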

[1] = dose: 100.0 mg/kg/injection, schedule: Q04DX002 (ip), vehicle: Klucel (hydroxypropylcellulose) (HPC)
[2] = dose: 200.0 mg/kg/injection, schedule: Q04DX002 (ip), vehicle: Klucel (hydroxypropylcellulose) (HPC)
[3] = dose: 400.0 mg/kg/injection, schedule: Q04DX002 (ip), vehicle: Klucel (hydroxypropylcellulose) (HPC)
[4] = dose: 100.0 mg/kg/injection, schedule: Q04DX003 (ip), vehicle: saline
[5] = dose: 100.0 mg/kg/injection, schedule: Q04DX003 (ip), vehicle: Klucel (hydroxypropylcellulose) (HPC)
[6] = dose: 200.0 mg/kg/injection, schedule: Q04DX003 (ip), vehicle: Klucel (hydroxypropylcellulose) (HPC)
[7] = dose: 400.0 mg/kg/injection, schedule: Q04DX003 (ip), vehicle: Klucel (hydroxypropylcellulose) (HPC)
[8] = dose: 200.0 mg/kg/injection, schedule: Q04DX003 (ip), vehicle: saline
[9] = dose: 400.0 mg/kg/injection, schedule: Q04DX003 (ip), vehicle: saline
[10] = dose: 100.0 mg/kg/injection, schedule: Q01DX001 (ip), vehicle: saline
[11] = dose: 200.0 mg/kg/injection, schedule: Q01DX001 (ip), vehicle: saline
[12] = dose: 400.0 mg/kg/injection, schedule: Q01DX001 (ip), vehicle: saline
[13] = dose: 100.0 mg/kg/injection, schedule: Q04DX003 (ip), vehicle: saline with Tween-80
[14] = dose: 200.0 mg/kg/injection, schedule: Q04DX003 (ip), vehicle: saline with Tween-80
[15] = dose: 400.0 mg/kg/injection, schedule: Q04DX003 (ip), vehicle: saline with Tween-80
[16] = dose: 100.0 mg/kg/injection, schedule: Q01DX009 (ip), vehicle: Klucel (hydroxypropylcellulose) (HPC)

Measured: T/C

O=C(O)/C=C/C(=O)Nc1cccc(C(F)(F)F)c1
inactive: [1] 100 % of control | [2] 100 % of control | [3] 96 % of control

CN1CC2([N+](=O)[O-])C=CCC([N+](=O)[O-])(C1)C2 (stereo unspecified)
inactive: dose: 25.0 mg/kg/injection, schedule: Q01DX009 (ip), vehicle: water 98 % of control | dose: 50.0 mg/kg/injection, schedule: Q01DX009 (ip), vehicle: water 102 % of control | dose: 100.0 mg/kg/injection, schedule: Q01DX009 (ip), vehicle: water 104 % of control | dose: 200.0 mg/kg/injection, schedule: Q01DX009 (ip), vehicle: water 103 % of control

CN(C)c1ccnc(N(C)C)n1
inactive: dose: 16.0 mg/kg/injection, schedule: Q01DX Z (ip), vehicle: methylcellulose (MC) 96 % of control | dose: 31.0 mg/kg/injection, schedule: Q01DX Z (ip), vehicle: methylcellulose (MC) 98 % of control

CCCCCCCCCCCCCCCC(=O)N(CCCN)CCCCCCCCCN(CCCN)C(=O)CCCCCCCCCCCCCCC
inactive: dose: 25.0 mg/kg/injection, schedule: Q01DX009 (ip), vehicle: saline 96 % of control | dose: 50.0 mg/kg/injection, schedule: Q01DX009 (ip), vehicle: saline 97 % of control | [4] 91 % of control

O=C(CC(=O)c1cccc([N+](=O)[O-])c1)Nc1ccccc1Br
inactive: [5] 94 % of control | [6] 91 % of control | [7] 94 % of control

O=C(COc1ccccc1)Nc1ccc[n+](Cc2ccc(S(=O)(=O)F)cc2)c1
inactive: [4] 95 % of control and 118 % of control | [8] 101 % of control and 118 % of control | [9] 95 % of control and 114 % of control

O=c1ncc2[nH]c(I)nc2[nH]1
inactive: dose: 100.0 mg/kg/injection, schedule: Q01DX001 (ip), vehicle: carboxymethylcellulose (CMC) 96 % of control

Nc1nc(=O)n(C2CC(O)C(CO)O2)cc1Br (stereo unspecified)
inactive: dose: 20.0 mg/kg/injection, schedule: Q01DX Z (ip), vehicle: carboxymethylcellulose (CMC) 95 % of control | dose: 40.0 mg/kg/injection, schedule: Q01DX Z (ip), vehicle: carboxymethylcellulose (CMC) 101 % of control | dose: 50.0 mg/kg/injection, schedule: Q01DX001 (ip), vehicle: saline 109 % of control | dose: 80.0 mg/kg/injection, schedule: Q01DX Z (ip), vehicle: carboxymethylcellulose (CMC) 101 % of control | [10] 105 % of control | dose: 160.0 mg/kg/injection, schedule: Q01DX Z (ip), vehicle: carboxymethylcellulose (CMC) 106 % of control | [11] 111 % of control | [12] 117 % of control

Cc1ccc(S(=O)(=O)O/C=C2\CCOC2=O)cc1
inactive: [1] 105 % of control | [2] 112 % of control

N#CCCSc1ccccc1
inactive: dose: 25.0 mg/kg/injection, schedule: Q01DX009 (ip), vehicle: saline with Tween-80 112 % of control | dose: 50.0 mg/kg/injection, schedule: Q01DX009 (ip), vehicle: saline with Tween-80 91 % of control | dose: 100.0 mg/kg/injection, schedule: Q01DX009 (ip), vehicle: saline with Tween-80 100 % of control and 105 % of control | dose: 100.0 mg/kg/injection, schedule: Q04DX002 (ip), vehicle: saline with Tween-80 86 % of control | dose: 200.0 mg/kg/injection, schedule: Q04DX002 (ip), vehicle: saline with Tween-80 100 % of control

CCOC(=O)NC(C)(C)CN(C(=O)OCC)C(C)C
inactive: [13] 97 % of control | [14] 101 % of control | [15] 117 % of control

N/C(=N\c1nc(-c2ccccc2)cc(-c2ccccc2O)n1)N1CCOCC1
inactive: [1] 98 % of control | [2] 98 % of control | [3] 95 % of control

NC(N)=NC(N)=NCCCc1ccccc1
inactive: dose: 12.5 mg/kg/injection, schedule: Q01DX001 (ip), vehicle: other 107 % of control | dose: 12.5 mg/kg/injection, schedule: Q04DX003 (ip), vehicle: other 97 % of control | dose: 25.0 mg/kg/injection, schedule: Q01DX001 (ip), vehicle: other 96 % of control | dose: 25.0 mg/kg/injection, schedule: Q04DX003 (ip), vehicle: other 94 % of control | dose: 50.0 mg/kg/injection, schedule: Q01DX001 (ip), vehicle: other 102 % of control | dose: 50.0 mg/kg/injection, schedule: Q04DX003 (ip), vehicle: other 97 % of control | [10] 96 % of control | [11] 96 % of control

COc1cccc(CCC(=O)O)c1
inactive: dose: 100.0 mg/kg/injection, schedule: Q01DX009 (ip), vehicle: gum acacia 107 % of control | dose: 100.0 mg/kg/injection, schedule: Q04DX003 (ip), vehicle: gum acacia 104 % of control | dose: 200.0 mg/kg/injection, schedule: Q01DX009 (ip), vehicle: gum acacia 107 % of control | dose: 200.0 mg/kg/injection, schedule: Q04DX003 (ip), vehicle: gum acacia 102 % of control | dose: 400.0 mg/kg/injection, schedule: Q01DX009 (ip), vehicle: gum acacia 98 % of control | dose: 400.0 mg/kg/injection, schedule: Q04DX003 (ip), vehicle: gum acacia 96 % of control

CC(C)=CCC/C(C)=C/CC/C(C)=C/COC(N)=O
inactive: [5] 93 % of control | [6] 96 % of control | [7] 91 % of control

O=C(NCC(O)CNC(=O)Nc1ccc(C2=NCCN2)cc1)Nc1ccc(C2=NCCN2)cc1
inactive: dose: 3.75 mg/kg/injection, schedule: Q01DX Z (ip), vehicle: carboxymethylcellulose (CMC) 97 % of control | dose: 62.0 mg/kg/injection, schedule: Q01DX Z (oral), vehicle: carboxymethylcellulose (CMC) 110 % of control | dose: 84.0 mg/kg/injection, schedule: Q01DX Z (ip), vehicle: carboxymethylcellulose (CMC) 104 % of control | dose: 125.0 mg/kg/injection, schedule: Q01DX Z (oral), vehicle: carboxymethylcellulose (CMC) 108 % of control | dose: 250.0 mg/kg/injection, schedule: Q01DX Z (oral), vehicle: carboxymethylcellulose (CMC) 104 % of control | dose: 500.0 mg/kg/injection, schedule: Q01DX Z (oral), vehicle: carboxymethylcellulose (CMC) 97 % of control
active: dose: 15.0 mg/kg/injection, schedule: Q01DX Z (ip), vehicle: carboxymethylcellulose (CMC) 244 % of control | dose: 21.0 mg/kg/injection, schedule: Q01DX Z (ip), vehicle: carboxymethylcellulose (CMC) 216 % of control | dose: 30.0 mg/kg/injection, schedule: Q01DX Z (ip), vehicle: carboxymethylcellulose (CMC) 164 % of control

CC(=O)C(C)(C)/C(C)=C/C(=O)O
inactive: [16] 95 % of control | [5] 100 % of control | dose: 200.0 mg/kg/injection, schedule: Q01DX009 (ip), vehicle: Klucel (hydroxypropylcellulose) (HPC) 95 % of control | [6] 100 % of control | dose: 400.0 mg/kg/injection, schedule: Q01DX009 (ip), vehicle: Klucel (hydroxypropylcellulose) (HPC) 98 % of control | [7] 97 % of control

O=C1CCc2cc3c(cc21)OCO3
inactive: [4] 103 % of control | [8] 96 % of control | [9] 102 % of control

CCOC(=O)C(C)[P+](c1ccccc1)(c1ccccc1)c1ccccc1 (stereo unspecified)
inactive: dose: 1.5 mg/kg/injection, schedule: Q01DX009 (ip), vehicle: saline 108 % of control | dose: 1.5 mg/kg/injection, schedule: Q04DX003 (ip), vehicle: saline 98 % of control | dose: 3.0 mg/kg/injection, schedule: Q01DX009 (ip), vehicle: saline 106 % of control | dose: 3.0 mg/kg/injection, schedule: Q04DX003 (ip), vehicle: saline 108 % of control | dose: 6.0 mg/kg/injection, schedule: Q04DX003 (ip), vehicle: saline 123 % of control

CCCCC/C=C/C/C=C/CCCCCCCC(=O)N1CCOCC1
inactive: dose: 100.0 mg/kg/injection, schedule: Q01DX001 (ip), vehicle: saline with Tween-80 94 % of control | dose: 200.0 mg/kg/injection, schedule: Q01DX001 (ip), vehicle: saline with Tween-80 96 % of control | dose: 400.0 mg/kg/injection, schedule: Q01DX001 (ip), vehicle: saline with Tween-80 97 % of control

COc1cccc(O)c1/C=C/[N+](=O)[O-]
inactive: dose: 50.0 mg/kg/injection, schedule: Q01DX009 (ip), vehicle: Klucel (hydroxypropylcellulose) (HPC) 104 % of control | [16] 102 % of control

Cc1cc(NS(=O)(=O)c2ccc(N=Nc3cc(N=Nc4ccccc4)c(N)nc3N)cc2)nc(C)n1
inactive: [10] 100 % of control | [11] 100 % of control | [12] 105 % of control

CC(C(=O)c1ccccc1)C(O)(C(F)(F)F)C(F)(F)F (stereo unspecified)
inactive: [13] 97 % of control | [14] 97 % of control | [15] 99 % of control
